Experimental data reported in patent publication US4005146A, “Resolution of dl-allethrolone” (Roussel-UCLAF, priority 1971, dated 1977).

Experiments:
[1] = system: female german cockroaches; experiment: Knock down effect on female german cockroaches by direct spraying; assay type: in vivo; conditions: for % KD after 5 min. / % KD after 10 min. / % KD after 15 min. / % KD after 30 min. / % KD after 60 min.: direct spraying 0.5 ml kerosene/acetone; for KD50 times more active than compound B: compound A vs compound B
Method: The knock down effect of the same two compounds was determined on female german cockroaches by direct spraying as 0.5 ml of a solution in equal volumes of kerosene and acetone. 20 insects were used for each test and the knock down effect was determined at 5,10,15,30 and 60 minutes after treatment.

[2] = system: house flies; experiment: Lethal insecticidal activity on house flies, topical application to dorsal thorax; assay type: in vivo; conditions: for % Mortality / DL50: 24 hours after topical treatment, 1 μl acetone solution
Method: The lethal insecticidal activity of d-allethrolone chrysanthemate (compound A) was compared with dl-allethrolone chrysanthemate (compound B) on house flies by topically applying 1 μl of an acetone solution thereof to the dorsal thorax of the insect. 50 insects were used for each dose and the number of dead was determined 24 hours after the treatment.

[3] = Insecticidal activity of d-allethrolone d-trans chrysanthemate vs the dl-allethrolone ester (general statement); assay type: in vivo
[4] = vs chrysanthemic acid ester of levo allethrolone; Elliott, J. Sci. Food Agr. 1954; cited from earlier work

Structure (SMILES) | % KD after 5 min. ([1]; 250 mg/l) | % KD after 10 min. ([1]; 250 mg/l) | % KD after 15 min. ([1]; 250 mg/l) | % KD after 30 min. ([1]; 250 mg/l) | % KD after 60 min. ([1]; 250 mg/l) | % KD after 5 min. ([1]; 500 mg/l) | % KD after 10 min. ([1]; 500 mg/l) | % KD after 15 min. ([1]; 500 mg/l) | % KD after 30 min. ([1]; 500 mg/l) | % KD after 60 min. ([1]; 500 mg/l) | % KD after 5 min. ([1]; 1000 mg/l) | % KD after 10 min. ([1]; 1000 mg/l) | % KD after 15 min. ([1]; 1000 mg/l) | % KD after 30 min. ([1]; 1000 mg/l) | % KD after 60 min. ([1]; 1000 mg/l) | % Mortality ([2]; 50 mg/l) | % Mortality ([2]; 100 mg/l) | DL50 [2] | other results
C=CCC1=C(C)C(OC(=O)C2C(C=C(C)C)C2(C)C)CC1=O (racemic) [B, dl-allethrolone chrysanthemate, reference compound] | 7.5% | 7.5% | 12.5% | 12.5% | 12.5% | 30.9% | 50.0% | 54.7% | 47.6% | 45.2% | 46.1% | 64.1% | 74.3% | 79.4% | 89.7% | 16.2% | 33.7% | 224.3 mg/L | % Mortality ([2]; 200 mg/l): 49.0%; % Mortality ([2]; 300 mg/l): 55.1%
C=CCC1=C(C)[C@@H](OC(=O)[C@@H]2[C@@H](C=C(C)C)C2(C)C)CC1=O [d-allethrolone d-trans chrysanthemate] |  |  |  |  |  |  |  |  |  |  |  |  |  |  |  |  |  |  | insecticidal activity relative to the corresponding dl-allethrolone ester [3]: much superior insecticidal activity
C=CCC1=C(C)[C@@H](OC(=O)C2C(C=C(C)C)C2(C)C)CC1=O (stereo partly drawn) [A, d-allethrolone chrysanthemate] | 45.0% | 52.5% | 65.0% | 62.5% | 65.0% | 61.9% | 71.4% | 83.3% | 85.7% | 88.0% | 100% | 100% | 100% | 100% | 100% | 45.6% | 65.3% | 54 mg/L | times more effective as an insecticide than the ester of levo allethrolone [4]: 4 times; KD50 times more active than compound B ([1]; 5 minutes): about 4.3 times; KD50 times more active than compound B ([1]; 30 minutes): 2.8 times; % Mortality ([2]; 25 mg/l): 49.0%; % Mortality ([2]; 75 mg/l): 76.6%; times more active than compound B (lethal activity) ([2]; compound A vs compound B, Table II): 4.15 times
